Patent publication US11857601B2, “Pharmaceutical composition for cancer treatment comprising fusion protein including IL-2 protein and CD80 protein and anticancer drug” (GI INNOVATION, INC., priority 2020, dated 2024)

How the values were obtained:
[1] = test system: HCT116 cells; assay: Cancer cell killing, GI-101 and Pertuzumab, HCT116 with NK cells; type: cell-based, human; details: GI-101 0.4-100 nM, Pertuzumab 16.9 nM, 24 hours
From the text: This experiment was to evaluate the effect of killing cancer cells by treating HCT116 cells (human colon cancer cells) with the test substance GI-101 alone or in combination with Pertuzumab substance in an in vitro environment.
HCT116 cells were purchased from the Korea cell line bank and cultured in McCoy's 5A medium (ATCC) containing 10% FBS (Gibco) and 1% antibiotic/antifungal agent (Gibco). For use in cancer cell killing test, the cells were harvested using trypsin (Gibco), and then suspended in McCoy's 5A medium, and then dead cells and debris were removed using Ficoll (GE Healthcare Life Sciences) solution. The cells suspended in McCoy's 5A medium were carefully layered on ficoll solution. […]
(§1) In order to identify the effect of killing the cells, a CytoTox Green reagent ([…]™ CytoTox Green, Satorius) that binds to the DNA of cells to be killed was prepared in 1 μl per 1 mL of RPMI1640 medium containing 5% human AB serum (Sigma). The prepared medium was used for dilution of the test substance, and the effect of killing the cells could be quantitatively identified by staining the cells to be killed when the test substance was co-cultured with cancer cell lines and PBMCs. […]

[2] = test system: CD8+ T cells and CD4+/FoxP3+ Treg cells; assay: Proliferation of CD8+ T cells and Treg cells in PBMCs (Exp. Ex. 10); type: cell-based, human
Description: Human PBMCs were purchased from Allcells (Lot #3014928, USA). […] CellTrace CFSE dye was used, which was reacted with the human PBMCs under a light-blocking condition at […] for 20 minutes. The cells were labeled with CFSE by being reacted with 1 μM CellTrace CFSE dye at 37° C. for 20 minutes. CFSE not bound to the cells was removed by being reacted for 5 minutes with a culture medium having a 5-fold volume of the staining reaction solution and then by being centrifuged at 1,300 rpm for 5 minutes. The CFSE-labeled PBMCs were resuspended in the culture medium (RPMI1640 medium containing 10% fetal bovine serum, 10 mM HEPES, 100 U/ml penicillin/streptomycin, 1 mM sodium pyruvate, 55 μM 2-mercaptoethanol, 1 mM non-essential amino acid, and 2 mM L-glutamine), and then added to a 96-well microplate at 1×10^5 cells per well.
The incubated cells were examined for their degree of proliferation by measuring, with FACS analysis using anti-human CD4-PE antibody (BioLegend, USA), anti-human CD8-PE/Cy7 antibody (BioLegend, USA), and anti-human FoxP3-APC antibody (BioLegend, USA), a proportion of CD8+ T cells that had not been labeled with CFSE.

[3] = test system: MDA-MB-231 cells; assay: Cancer cell killing, GI-101 and Ribociclib, MDA-MB-231 with PBMCs; type: cell-based, human; details: GI-101 100 nM, Ribociclib 913 nM, 24 hours, compared with co-culturing only cancer cells and PBMCs
From the text: This experiment was to evaluate the effect of killing cancer cells by treating MDA-MB-231 cells (human breast cancer cells) with the test substance GI-101 alone or in combination with Ribociclib substance in an in vitro environment.
MDA-MB-231 cells were purchased from the Korea cell line bank and cultured in RPMI1640 medium (Gibco) containing 10% FBS (Gibco) and 1% antibiotic/antifungal agent (Gibco). For use in cancer cell killing test, the cells were harvested using trypsin (Gibco), and then suspended in RPMI1640 medium, and then dead cells and debris were removed using Ficoll (GE Healthcare Life Sciences) solution. The cells suspended in RPMI1640 medium were carefully layered on ficoll solution. […]
as §1

[4] = test system: 4T1 cells; assay: mGI-101, anti-PD-L1 antibody and Docetaxel in 4T1 allotransplanted tumor model; type: in vivo, BALB/c mice
From the text: This experiment was to evaluate the anticancer efficacy according to administration of the test substance mGI-101 alone or in combination with Docetaxel (Selleck Chemicals, cat. no. S1148) and the anti-PD-L1 antibody (BioXcell, cat. no. BE0101) in a tumor model allotransplanted with 4T1 cells (mouse breast cancer cells) into BALB/c mice.
4T1 cells were purchased from ATCC (USA) and cultured in RPMI1640 medium (Gibco) containing 10% FBS (Gibco) and 1% antibiotic/antifungal agent (Gibco). The cultured cells were harvested using trypsin (Gibco), and then a cell suspension was prepare with PBS and stored on ice until injected into mice. In order to establish an allotransplanted tumor model, after identifying the location of the second mammary fat pad from the upper right of the ventral region of BALB/c female mice (8-week-old), 4T1 cell line prepared inside the mammary fat pad was injected at 4×10^4 cells/40 μl/head.
A certain period of time after cell inoculation of the tumor grafts of the mice, the tumor volume was measured for animals with no abnormalities in the health condition of the animals, and the subjects were selected so that the average of each group reached less than 70-100 mm^3, and the selected animals were assigned as evenly as possible based on tumor volume and body weight, each group including 10 animals.
Docetaxel was dissolved in 100% DMSO, and then the volume was adjusted with 5% of DMSO, 30% of PEG300, 5% of Tween 80, and 60% of distilled water for injection (DMSO PEG300: Tween 80: distilled water for injection=5%: 30%: 5%: 60% (v:v:v:v)) and prepared.
The Anti-PD-L1 antibody was prepared and administered using 1×PBS in consideration of dosage amount and volume. […]
The tumor volume before administration of each subject was set as the value measured at the time of grouping, and the anti-tumor efficacy was evaluated as compared with the vehicle control. […]

[5] = test system: 4T1 cells; assay: mGI-101 and Abemaciclib in 4T1 allotransplanted tumor model; type: in vivo, BALB/c mice; details: 11 mice per group
Description: 4T1 cells were purchased from ATCC (USA) and cultured in RPMI1640 medium (Gibco) containing 10% FBS (Gibco) and 1% antibiotic/antifungal agent (Gibco). The cultured cells were harvested using trypsin (Gibco) and then suspended in PBS. In order to establish an allotransplanted tumor model, 1×10^5 of 4T1 cells were subcutaneously injected into the back of BALB/c female mice (8-week-old).
A certain period of time after cell inoculation of the tumor grafts of the mice, the tumor volume was measured for animals with no abnormalities in the health condition of the animals, and the mice were randomly selected and assigned, each group including 11 mice.
The death of the mouse, the type of general symptoms, the date of onset, and the severity of symptoms were observed once a day during the test period, and recorded for each subject.
The tumor volume before administration of each subject was set as the value measured at the time of grouping, and the anti-tumor efficacy was evaluated as compared with the vehicle control.
All statistical calculations were performed using Prism 8.0 (Graph Pad Software Inc, USA). The comparison of tumor volume measurements was made through two-way analysis of variance followed by Tukey's multiple comparison test. A p value of less than 0.05 was considered significant.

[6] = 4T1, end of the test, 10 animals per group

Pertuzumab: Her2 inhibitor [reference compound]
effect of killing cancer cells [1]: effect of killing cancer cells was not shown

Proleukin: Proleukin (Novartis, hIL-2); human recombinant IL-2 [reference compound]
proportion of CD8+ T cells ([2]; anti-CD3ε 1 μg/ml, 7 days, compared with no stimulus, anti-CD3 antibody alone and GI101C1): significant increase
proliferation of CD4+/FoxP3+ Treg cells ([2]; compared with no stimulus and anti-CD3 antibody alone): significant increase

CN(C)C(=O)c1cc2cnc(Nc3ccc(N4CCNCC4)cn3)nc2n1C1CCCC1 [Ribociclib, reference compound]
effect of killing cancer cells [3]: excellent effect of killing cancer cells

CC(=O)O[C@@]12CO[C@@H]1C[C@H](O)[C@@]1(C)C(=O)[C@H](O)C3=C(C)[C@@H](OC(=O)[C@H](O)[C@@H](NC(=O)OC(C)(C)C)c4ccccc4)C[C@@](O)([C@@H](OC(=O)c4ccccc4)[C@H]21)C3(C)C [Docetaxel]
number of mice with tumor growth inhibition rate of 30% or more [4, 6]: 5 mice
number of mice with tumor growth inhibition rate of 50% or more [4, 6]: 1 mice
anticancer effect (tumor size) compared with the control ([4]; day 14, Docetaxel 15 mg/kg, mGI-101 3 mg/kg, aPD-L1 10 mg/kg i.p. QW): statistically significant anticancer effect

CCN1CCN(Cc2ccc(Nc3ncc(F)c(-c4cc(F)c5nc(C)n(C(C)C)c5c4)n3)nc2)CC1 [Abemaciclib, reference compound]
number of mice with tumor growth inhibition rate of 30% or more [5]: 4 mice
number of mice with tumor growth inhibition rate of 50% or more [5]: 1 mice
number of mice with tumor growth inhibition rate of 80% or more [5]: 1 mice
